US8987193B2, “Nisin derivatives and the use thereof” (University College Cork—National University of Ireland, Cork, priority 2008, dated 2015)
Entries after “also recorded” stand apart in the source; their conditions may differ. Ends that are not written are not given here.

Tests used:
[1] = tested on: Listeria monocytogenes 33013; test: Deferred antagonism assay; assay type: cell-based; conditions: nisin strain; L. monocytogenes 33013
Protocol: (§1) Deferred antagonism assays were performed by replicating strains on GM17 or GM17 x-gal agar plates and allowing them to grow overnight before overlaying with either GM17/BHI/TS/MH agar (0.75% w/v agar) seeded with the appropriate indicator strain. Zone size was calculated as the diameter of the zone of clearing minus the diameter of bacterial growth (5 mm) For higher throughput screening of N20PXX, XM21VX, XXK22T and XXX banks deferred antagonism assays were performed by replicating strains using a 96 pin replicator (Boekel) or spotting 5 μl of a fresh overnight culture on GM17 agar plates and allowing them to grow overnight. […] Additional sets of indicators were employed to further assess/reassess the bioactivity of a number of strains. […] For well-diffusion assays molten agar was cooled to 48° C. and seeded with the appropriate indicator strain. The inoculated medium was rapidly transferred into sterile Petri plates in 50 ml volumes, allowed to solidify and dried. Wells (4.6 mm in diameter) were then made in the seeded plates. Purified nisin and mutant nisins were resuspended in 0.005% acetic acid, serially diluted, 50 μl volumes were dispensed into the aforementioned wells and the plates incubated at 37° C. overnight. Bioactivity was expressed as arbitrary units/ml (AU/ml) and calculated as the reciprocal of the highest dilution that gave a definite zone multiplied by the conversion factor (i.e. 20 when 50 μl was used) (Ryan et al., 1996).

[2] = tested on: Listeria monocytogenes 33116; test: Deferred antagonism assay; assay type: cell-based; conditions: nisin strain; L. monocytogenes 33116
Protocol: as §1

[3] = tested on: Listeria monocytogenes 33077; test: Deferred antagonism assay; assay type: cell-based; conditions: nisin strain; L. monocytogenes 33077
Protocol: as §1

[4] = tested on: Listeria monocytogenes 33186; test: Deferred antagonism assay; assay type: cell-based; conditions: nisin strain; L. monocytogenes 33186
Protocol: as §1

[5] = tested on: Listeria monocytogenes 33037; test: Deferred antagonism assay; assay type: cell-based; conditions: nisin strain; L. monocytogenes 33037
Protocol: as §1

[6] = tested on: Listeria monocytogenes 33176; test: Deferred antagonism assay; assay type: cell-based; conditions: nisin strain; L. monocytogenes 33176
Protocol: as §1

[7] = tested on: Listeria monocytogenes 33225; test: Deferred antagonism assay; assay type: cell-based; conditions: nisin strain; L. monocytogenes 33225
Protocol: as §1

[8] = tested on: Listeria monocytogenes CD83; test: Deferred antagonism assay; assay type: cell-based; conditions: nisin strain; L. monocytogenes CD83
Protocol: as §1

[9] = tested on: Listeria monocytogenes SLCC 6793; test: Deferred antagonism assay; assay type: cell-based; conditions: nisin strain; L. monocytogenes SLCC 6793
Protocol: as §1

[10] = tested on: Listeria monocytogenes NRRLB 33038; test: Deferred antagonism assay; assay type: cell-based; conditions: nisin strain; L. monocytogenes NRRLB 33038
Protocol: as §1

[11] = tested on: Listeria monocytogenes LO28; test: Deferred antagonism assay; assay type: cell-based; conditions: nisin strain; L. monocytogenes LO28
Protocol: as §1

Listeria innocua FH2117 = test: Deferred antagonism assay; assay type: cell-based; conditions: nisin strain
Protocol: as §1

[12] = tested on: Listeria monocytogenes 33090; test: Deferred antagonism assay; assay type: cell-based; conditions: nisin strain; L. monocytogenes 33090
Protocol: as §1

[13] = tested on: Listeria monocytogenes SLCC 4949; test: Deferred antagonism assay; assay type: cell-based; conditions: nisin strain; L. monocytogenes SLCC 4949
Protocol: as §1

[14] = tested on: Listeria monocytogenes F2365; test: Deferred antagonism assay; assay type: cell-based; conditions: nisin strain; L. monocytogenes F2365
Protocol: as §1

[15] = tested on: Listeria monocytogenes 33411; test: Deferred antagonism assay; assay type: cell-based; conditions: nisin strain; L. monocytogenes 33411
Protocol: as §1

[16] = tested on: Listeria monocytogenes 33423; test: Deferred antagonism assay; assay type: cell-based; conditions: nisin strain; L. monocytogenes 33423
Protocol: as §1

[17] = tested on: Listeria monocytogenes 33007; test: Deferred antagonism assay; assay type: cell-based; conditions: nisin strain; L. monocytogenes 33007
Protocol: as §1

[18] = tested on: Listeria monocytogenes CD1038; test: Deferred antagonism assay; assay type: cell-based; conditions: nisin strain; L. monocytogenes CD1038
Protocol: as §1

[19] = tested on: 30 L. monocytogenes and 3 L. innocua strains; test: Deferred antagonism assay, collection of Listeria strains; assay type: cell-based; conditions: of 30 L. monocytogenes and 3 L. innocua strains
Protocol: as §1

L. lactis CBC8 = test: Deferred antagonism assay; assay type: cell-based; set-up: key: + = Enhanced bioactivity relative to control; − = Bioactivity equal to or less than control; NA = no activity evident; conditions: producing strain
Procedure, shortened: (§2)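 Well-diffusion testing of purified nisin variants in 0.005% acetic acid, serially diluted, 37° C overnight; AU/ml = reciprocal of last dilution with definite zone × 20. Deferred antagonism: overnight GM17 colonies overlaid with seeded soft agar (0.75%); zone = clearing diameter minus 5 mm.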

L. lactis CBC7 = test: Deferred antagonism assay; assay type: cell-based; set-up: key: + = Enhanced bioactivity relative to control; − = Bioactivity equal to or less than control; NA = no activity evident; conditions: producing strain
Procedure, shortened: as §2

indicator strains = test: Deferred antagonism assays, various indicator strains (summary); assay type: cell-based
Procedure, shortened: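 Producer strains were replicated on GM17 or GM17 x-gal agar, grown overnight, then overlaid with GM17, BHI, TS or MH soft agar (0.75% w/v) seeded with the indicator strain. Zone size was taken as the clearing diameter minus the diameter of bacterial growth (5 mm).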

C. sporogenes CBC5 = test: Deferred antagonism assay; assay type: cell-based, Clostridium sporogenes; set-up: key: + = Enhanced bioactivity relative to control; − = Bioactivity equal to or less than control; NA = no activity evident; conditions: producing strain
L. plantarum CBC6 = test: Deferred antagonism assay; assay type: cell-based, Lactobacillus plantarum; set-up: key: + = Enhanced bioactivity relative to control; − = Bioactivity equal to or less than control; NA = no activity evident; conditions: producing strain
Procedure, shortened: as §2

NisinA M21G (ITSISLCTPGCKTGALMGCNGKTATCHCSIHVSK; not fully specified; also: lantibiotic: lanthionine rings and dehydro residues not placed; UniProt P13068 24-57, looked up, variant M21G) [nisin A derivative, hinge substitution M21G]
Activity score (zone) [1]: + (+, 1-5 mm zone) | Activity score (zone) [2]: + (+, 1-5 mm zone) | Activity score (zone) [3]: + (+, 1-5 mm zone) | Activity score (zone) [4]: + (+, 1-5 mm zone) | Activity score (zone) [5]: + (+, 1-5 mm zone) | Activity score (zone) [6]: + (+, 1-5 mm zone) | Activity score (zone) [7]: + (+, 1-5 mm zone) | Activity score (zone) [8]: + (+, 1-5 mm zone) | Activity score (zone) [9]: ++ (++, 6-10 mm zone) | Activity score (zone) [10]: + (+, 1-5 mm zone) | Activity score (zone) [11]: + (+, 1-5 mm zone) | Activity score (zone) (Listeria innocua FH2117): + (+, 1-5 mm zone) | Activity score (zone) [12]: + (+, 1-5 mm zone) | Activity score (zone) [13]: + (+, 1-5 mm zone) | Activity score (zone) [14]: + (+, 1-5 mm zone) | Activity score (zone) [15]: + (+, 1-5 mm zone) | Activity score (zone) [16]: + (+, 1-5 mm zone) | Activity score (zone) [17]: + (+, 1-5 mm zone) | Activity score (zone) [18]: + (+, 1-5 mm zone) | number of strains with enhanced bioactivity (relative to the control) [19]: 10 | number of strains with equal levels of bioactivity [19]: 19 | number of strains with reduced activity [19]: 4 | Bioactivity relative to control (L. lactis CBC8): − | Bioactivity relative to control (L. lactis CBC7): − | relative bioactivity against the indicators of Table 6 (indicator strains; Staph. aureus ST528, DPC5245 and Strep. agalactiae ATCC 13813 taken together): approximately 120% | Strain(s) against which the derivative (producing strain) displays enhanced bioactivity (indicator strains; relative to nisin A-producing control, value = strains listed): L. monocytogenes CBC2, Staph. aureus CBC4 and C. sporogenes CBC5; also recorded: L. monocytogenes CBC2 , S. aureus CBC4, ST528 , and DPC5425, Strep. agalactiae ATCC 13813, C. sporogenes CBC5 + an additional 7 L. monocytogenes and 3 L. innocua | Bioactivity relative to control (C. sporogenes CBC5): + | Bioactivity relative to control (L. plantarum CBC6): −
